Seven compounds from patent publication US20200354426A1 (MEDIMMUNE LIMITED, priority 2016, published 2020) can be followed below.

What all share (test): cAMP activity assay in assay medium (assay 1)
What all share (format): cell-based

One assay concerns the target T1, Human GIPr (Homo sapiens, UniProt P48546).
T1 construct: expressed in transfected cells
T1 sequence (P48546 22-466): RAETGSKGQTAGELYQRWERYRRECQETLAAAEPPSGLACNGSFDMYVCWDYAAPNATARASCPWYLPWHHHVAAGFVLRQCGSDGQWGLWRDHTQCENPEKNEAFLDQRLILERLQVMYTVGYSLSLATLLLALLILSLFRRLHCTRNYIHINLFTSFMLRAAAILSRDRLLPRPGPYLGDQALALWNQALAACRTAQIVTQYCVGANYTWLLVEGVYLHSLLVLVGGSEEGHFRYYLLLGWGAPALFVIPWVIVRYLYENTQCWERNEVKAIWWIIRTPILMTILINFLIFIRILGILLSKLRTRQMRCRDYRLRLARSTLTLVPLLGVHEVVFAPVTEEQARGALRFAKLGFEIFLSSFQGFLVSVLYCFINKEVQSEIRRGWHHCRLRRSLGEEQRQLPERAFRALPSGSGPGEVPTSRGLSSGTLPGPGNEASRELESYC
To be noted: assay medium; Table 4; read-out: hGIPR EC50. The source says:
(§1) Biological Activity of Peptides in Cell-Based cAMP Activity Assay (Assay 1):
(§2) All sample dilutions were made in duplicate.

The next assay addresses T2, Human GlucR (Homo sapiens, UniProt P47871).
T2 construct: expressed in transfected cells
To be noted: assay medium; Table 4; read-out: hGlucR EC50.
From the text: as §1, §2

The next assay has as its target Human GLP1R (Homo sapiens, UniProt P43220). Details: expressed in transfected cells. The following applies: assay medium; Table 4; read-out: hGLP1R EC50.
From the text: as §1, §2

Numbered stars: 1 amine (or outer) side, 2 acyl side, 3 side chain; on linkers, the order of the positions; unused ones are H or OH. Side chains are listed from the residue outwards. Peptide text beside a SMILES is read from it. * marks the point of attachment. γGlu = O=C(O)[C@H](CCC(=O)[*:2])N[*:1]; Palmitoyl = CCCCCCCCCCCCCCCC(=O)*; Ahx = NCCCCCC(=O)O; βAla = NCCC(=O)O

T2 sequence (P47871 26-477): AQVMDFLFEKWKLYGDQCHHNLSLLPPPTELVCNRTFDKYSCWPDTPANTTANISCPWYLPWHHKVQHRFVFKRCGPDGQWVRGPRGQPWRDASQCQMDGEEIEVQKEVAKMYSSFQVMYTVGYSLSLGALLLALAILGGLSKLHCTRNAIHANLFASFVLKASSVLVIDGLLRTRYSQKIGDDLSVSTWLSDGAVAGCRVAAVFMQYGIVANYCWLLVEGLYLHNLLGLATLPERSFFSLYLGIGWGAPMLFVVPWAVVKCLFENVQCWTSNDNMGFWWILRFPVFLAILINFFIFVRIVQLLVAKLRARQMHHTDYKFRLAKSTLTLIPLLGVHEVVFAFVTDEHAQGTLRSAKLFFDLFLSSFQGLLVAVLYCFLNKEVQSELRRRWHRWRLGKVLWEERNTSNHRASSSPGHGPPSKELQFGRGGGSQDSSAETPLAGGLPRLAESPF
Sequence of Human GLP1R (P43220 24-463): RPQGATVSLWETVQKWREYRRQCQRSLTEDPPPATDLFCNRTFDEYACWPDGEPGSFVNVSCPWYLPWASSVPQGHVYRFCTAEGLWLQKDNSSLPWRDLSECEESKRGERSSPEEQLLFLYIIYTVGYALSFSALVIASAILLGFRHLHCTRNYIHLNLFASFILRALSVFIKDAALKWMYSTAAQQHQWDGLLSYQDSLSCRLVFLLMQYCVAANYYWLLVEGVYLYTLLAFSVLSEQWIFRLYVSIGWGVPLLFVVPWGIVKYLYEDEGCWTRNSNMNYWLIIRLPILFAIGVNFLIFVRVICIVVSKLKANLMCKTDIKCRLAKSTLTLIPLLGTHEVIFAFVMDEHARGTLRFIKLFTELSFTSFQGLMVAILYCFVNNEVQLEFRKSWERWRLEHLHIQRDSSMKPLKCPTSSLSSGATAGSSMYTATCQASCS

For the compound `CCCCCCCCCCCCCCCC(=O)N[C@@H](CCC(=O)NCCCC[C@H](NC(=O)[C@H](CC(=O)O)NC(=O)[C@H](CC(C)C)NC(=O)[C@H](Cc1ccc(O)cc1)NC(=O)[C@H](CCCCN)NC(=O)[C@H](CO)NC(=O)[C@H](Cc1ccc(O)cc1)NC(=O)[C@H](CC(=O)O)NC(=O)[C@H](CO)NC(=O)[C@@H](NC(=O)[C@H](Cc1ccccc1)NC(=O)[C@@H](NC(=O)CNC(=O)[C@H](CCC(N)=O)NC(=O)[C@H](CO)NC(=O)[C@@H](N)Cc1c[nH]cn1)[C@@H](C)O)[C@@H](C)O)C(=O)N[C@@H](CCCNC(=N)N)C(=O)N[C@@H](CCCNC(=N)N)C(=O)N[C@@H](C)C(=O)N[C@@H](CCCNC(=N)N)C(=O)N[C@@H](CC(=O)O)C(=O)N[C@@H](Cc1ccccc1)C(=O)N[C@H](C(=O)N[C@@H](C)C(=O)N[C@@H](Cc1c[nH]c2ccccc12)C(=O)N[C@@H](CC(C)C)C(=O)N[C@@H](CCC(=O)O)C(=O)N[C@@H](C)C(=O)NCC(=O)NCC(N)=O)C(C)C)C(=O)O` [g781] (H-HSQGTFTSDYSKYLDK([γGlu-Palmitoyl])RRARDFVAWLEAGG-NH2; N-terminus assumed), the EC50 on Human GIPr came to 402 nM; at Human GlucR, 0.00285 nM; on Human GLP1R, 0.104 nM.
For `CCCCCCCCCCCCCCCC(=O)N[C@@H](CCC(=O)NCCCC[C@H](NC(=O)[C@H](CCCNC(=N)N)NC(=O)[C@H](CO)NC(=O)[C@H](CC(=O)O)NC(=O)[C@H](CC(C)C)NC(=O)[C@H](Cc1ccc(O)cc1)NC(=O)[C@H](CCCCN)NC(=O)[C@H](CO)NC(=O)[C@H](Cc1ccc(O)cc1)NC(=O)[C@H](CC(=O)O)NC(=O)[C@H](CO)NC(=O)[C@@H](NC(=O)[C@H](Cc1ccccc1)NC(=O)[C@@H](NC(=O)CNC(=O)[C@H](CCC(N)=O)NC(=O)[C@H](CO)NC(=O)[C@@H](N)Cc1c[nH]cn1)[C@@H](C)O)[C@@H](C)O)C(=O)N[C@@H](C)C(=O)N[C@@H](CCCNC(=N)N)C(=O)N[C@@H](CC(=O)O)C(=O)N[C@@H](Cc1ccccc1)C(=O)N[C@H](C(=O)N[C@@H](C)C(=O)N[C@@H](Cc1c[nH]c2ccccc12)C(=O)N[C@@H](CC(C)C)C(=O)N[C@@H](CCC(=O)O)C(=O)N[C@@H](C)C(=O)NCC(=O)NCC(N)=O)C(C)C)C(=O)O` [g782] (H-HSQGTFTSDYSKYLDSRK([γGlu-Palmitoyl])ARDFVAWLEAGG-NH2; N-terminus assumed), in that order: 1430 nM, 0.156 nM and 0.0254 nM.
Turning to `CCCCCCCCCCCCCCCC(=O)NCCC(=O)NCCCC[C@H](NC(=O)[C@H](CO)NC(=O)[C@H](CC(=O)O)NC(=O)[C@H](CC(C)C)NC(=O)[C@H](Cc1ccc(O)cc1)NC(=O)[C@H](CCC(=O)O)NC(=O)[C@H](CO)NC(=O)[C@H](Cc1ccc(O)cc1)NC(=O)[C@H](CC(=O)O)NC(=O)[C@H](CO)NC(=O)[C@@H](NC(=O)[C@H](Cc1ccccc1)NC(=O)[C@@H](NC(=O)CNC(=O)[C@H](CCC(N)=O)NC(=O)[C@H](CO)NC(=O)[C@@H](N)Cc1c[nH]cn1)[C@@H](C)O)[C@@H](C)O)C(=O)N[C@@H](CCCNC(=N)N)C(=O)N[C@@H](C)C(=O)N[C@@H](CCCNC(=N)N)C(=O)N[C@@H](CC(=O)O)C(=O)N[C@@H](Cc1ccccc1)C(=O)N[C@H](C(=O)N[C@@H](C)C(=O)N[C@@H](Cc1c[nH]c2ccccc12)C(=O)N[C@@H](CC(C)C)C(=O)N[C@@H](CCC(=O)O)C(=O)N[C@@H](C)C(=O)NCC(=O)NCC(N)=O)C(C)C` [g783] (H-HSQGTFTSDYSEYLDSK([βAla-Palmitoyl])RARDFVAWLEAGG-NH2; N-terminus assumed), the 50% effective concentration (EC50) came out at 846 nM at Human GIPr, 0.0911 nM at Human GlucR and 0.0424 nM at Human GLP1R.
`CCCCCCCCCCCCCCCC(=O)NCCCCCC(=O)NCCCC[C@H](NC(=O)[C@H](CO)NC(=O)[C@H](CC(=O)O)NC(=O)[C@H](CC(C)C)NC(=O)[C@H](Cc1ccc(O)cc1)NC(=O)[C@H](CCC(=O)O)NC(=O)[C@H](CO)NC(=O)[C@H](Cc1ccc(O)cc1)NC(=O)[C@H](CC(=O)O)NC(=O)[C@H](CO)NC(=O)[C@@H](NC(=O)[C@H](Cc1ccccc1)NC(=O)[C@@H](NC(=O)CNC(=O)[C@H](CCC(N)=O)NC(=O)[C@H](CO)NC(=O)[C@@H](N)Cc1c[nH]cn1)[C@@H](C)O)[C@@H](C)O)C(=O)N[C@@H](CCCNC(=N)N)C(=O)N[C@@H](C)C(=O)N[C@@H](CCCNC(=N)N)C(=O)N[C@@H](CC(=O)O)C(=O)N[C@@H](Cc1ccccc1)C(=O)N[C@H](C(=O)N[C@@H](C)C(=O)N[C@@H](Cc1c[nH]c2ccccc12)C(=O)N[C@@H](CC(C)C)C(=O)N[C@@H](CCC(=O)O)C(=O)N[C@@H](CCCNC(=N)N)C(=O)NCC(=O)NCC(N)=O)C(C)C` [g794] (H-HSQGTFTSDYSEYLDSK([Ahx-Palmitoyl])RARDFVAWLERGG-NH2; N-terminus assumed): the EC50 is 32.2 nM at Human GIPr, 0.00469 nM at Human GlucR and 0.0157 nM at Human GLP1R.
Regarding `CCCCCCCCCCCCCCCC(=O)NCCC(=O)NCCCC[C@H](NC(=O)[C@H](CO)NC(=O)[C@H](CC(=O)O)NC(=O)[C@H](CC(C)C)NC(=O)[C@H](Cc1ccc(O)cc1)NC(=O)[C@H](CCC(=O)O)NC(=O)[C@H](CO)NC(=O)[C@H](Cc1ccc(O)cc1)NC(=O)[C@H](CC(=O)O)NC(=O)[C@H](CO)NC(=O)[C@@H](NC(=O)[C@H](Cc1ccccc1)NC(=O)[C@@H](NC(=O)CNC(=O)[C@H](CCC(N)=O)NC(=O)[C@H](CO)NC(=O)[C@@H](N)Cc1c[nH]cn1)[C@@H](C)O)[C@@H](C)O)C(=O)N[C@@H](CCCNC(=N)N)C(=O)N[C@@H](C)C(=O)N[C@@H](CCCNC(=N)N)C(=O)N[C@@H](CC(=O)O)C(=O)N[C@@H](Cc1ccccc1)C(=O)N[C@H](C(=O)N[C@@H](C)C(=O)N[C@@H](Cc1c[nH]c2ccccc12)C(=O)N[C@@H](CC(C)C)C(=O)N[C@@H](CCC(=O)O)C(=O)N[C@@H](CCCNC(=N)N)C(=O)NCC(=O)NCC(N)=O)C(C)C` [g795] (H-HSQGTFTSDYSEYLDSK([βAla-Palmitoyl])RARDFVAWLERGG-NH2; N-terminus assumed), the figures for the concentration giving a half-maximal response (EC50) on Human GIPr, at Human GlucR and at Human GLP1R were 579 nM, 0.11 nM and 0.0734 nM, respectively.
Consider `CCCCCCCCCCCCCCCC(=O)N[C@@H](CCC(=O)NCCCC[C@H](NC(=O)[C@H](CCC(=O)O)NC(=O)[C@H](CO)NC(=O)[C@H](Cc1ccc(O)cc1)NC(=O)[C@H](CC(=O)O)NC(=O)[C@H](CO)NC(=O)[C@@H](NC(=O)[C@H](Cc1ccccc1)NC(=O)[C@@H](NC(=O)CNC(=O)[C@H](CCC(N)=O)NC(=O)[C@H](CO)NC(=O)[C@@H](N)Cc1c[nH]cn1)[C@@H](C)O)[C@@H](C)O)C(=O)N[C@@H](CC(C)C)C(=O)N[C@@H](CC(=O)O)C(=O)N[C@@H](CO)C(=O)N[C@@H](CCC(=O)O)C(=O)N[C@@H](CCCNC(=N)N)C(=O)N[C@@H](C)C(=O)N[C@@H](CCCNC(=N)N)C(=O)N[C@@H](CC(=O)O)C(=O)N[C@@H](Cc1ccccc1)C(=O)N[C@H](C(=O)N[C@@H](C)C(=O)N[C@@H](Cc1c[nH]c2ccccc12)C(=O)N[C@@H](CC(C)C)C(=O)N[C@H](C(=O)N[C@@H](C)C(=O)NCC(=O)NCC(N)=O)C(C)C)C(C)C)C(=O)O` [g802] (H-HSQGTFTSDYSEK([γGlu-Palmitoyl])LDSERARDFVAWLVAGG-NH2; N-terminus assumed), for which the values for the concentration for a half-maximal effect (EC50) on Human GIPr, on Human GlucR and at Human GLP1R were 91.2 nM, 1.81 nM and 0.0964 nM, respectively.
`CCCCCCCCCCCCCCCC(=O)N[C@@H](CCC(=O)NCCCC[C@H](NC(=O)[C@H](Cc1ccc(O)cc1)NC(=O)[C@H](CCCCN)NC(=O)[C@H](CO)NC(=O)[C@H](Cc1ccc(O)cc1)NC(=O)[C@H](CC(=O)O)NC(=O)[C@H](CO)NC(=O)[C@@H](NC(=O)[C@H](Cc1ccccc1)NC(=O)[C@@H](NC(=O)CNC(=O)[C@H](CCC(N)=O)NC(=O)[C@H](CO)NC(=O)[C@@H](N)Cc1c[nH]cn1)[C@@H](C)O)[C@@H](C)O)C(=O)N[C@@H](CC(=O)O)C(=O)N[C@@H](CO)C(=O)N[C@@H](CCCNC(=N)N)C(=O)N[C@@H](CO)C(=O)N[C@@H](C)C(=O)N[C@@H](CCCNC(=N)N)C(=O)N[C@@H](CC(=O)O)C(=O)N[C@@H](Cc1ccccc1)C(=O)N[C@H](C(=O)N[C@@H](CCC(=O)O)C(=O)N[C@@H](Cc1c[nH]c2ccccc12)C(=O)N[C@@H](CC(C)C)C(=O)N[C@H](C(=O)N[C@@H](C)C(=O)NCC(=O)NCC(N)=O)C(C)C)C(C)C)C(=O)O` [g803] (H-HSQGTFTSDYSKYK([γGlu-Palmitoyl])DSRSARDFVEWLVAGG-NH2; N-terminus assumed): the EC50 came to 32.9 nM on Human GIPr, 0.0108 nM at Human GlucR and 0.0296 nM on Human GLP1R.

As a reminder, the EC50 is the concentration needed to bring the measured effect to its halfway point.
